Assay [1] has as its target T1, HiBit-KRAS^G12C (Homo sapiens, UniProt P01116, G12C). Kind of assay: HiBit degradation assay in MiaPaCa-2 HiBit-KRas^G12C cells. In kind it is cell-based. The settings on record: 24 hours. The procedure:
Reagents. SW1573 (CRL-2170) and MiaPaCa-2 (CRL-1420) cells were purchased from ATCC. Both cell lines are […] for the G12C mutation in KRAS. SW1573 cells were cultured in DMEM+F12+Glutamax (+Sodium Bicarbonate, +sodium pyruvate, Thermofisher scientific, #10565) supplemented with 10% FBS (Thermofisher scientific, #2060357) and 1% Antibiotic-Antimycotic (Thermofisher scientific, #15240096). MiaPaCa-2 cells were cultured in DMEM+Glutamax media (Thermofisher scientific, #10566) supplemented with 10% FBS (Thermofisher scientific, #2060357) and 1% Antibiotic-Antimycotic (Thermofisher scientific, #15240096). For degradation assays, 384 well plates were purchased from Corning (Corning® CellBIND® 384-well Flat Clear Bottom Black Polystyrene Microplates, Low Flange, #3770). Gambogic acid was purchased from Selleckchem (#S2448). Alamar blue was purchased from Thermofisher scientific (A50101) and used according to manufacturer instructions. The Nano-Glo® HiBit Lytic Detection System and Nano-Glo® HiBit Blotting System were purchased from Promega (#N3050 and #N2410) and used according to manufacturer instructions.
To create the MiaPaCa-2 HiBit-KRAS^G12C cell line, CRISPR-Cas9 was used to insert the HiBit tag onto the N-terminus of one or more of the four endogenous KRAS^G12C alleles. After knock-in of the tag, individual clones were isolated by single cell dilution and screened for HiBit insertion by PCR. Clones containing the HiBit tag were sequenced and one was identified that contained the desired HiBit-KRAS^G12C sequence at one allele while the remaining three KRAS^G12C alleles were unaffected. This line was used for all subsequent studies.
Either SW1573 HiBit-KRas^G12C or MiaPaCa-2 HiBit-KRas^G12C cells were plated at 9000 cells/well in a 384 well plate (Corning #3770). Exemplary heterobifunctional molecules and positive controls were diluted in the appropriate cell media and applied to the plated cells resulting in a final concentration titration of 10 μM to 20 nM in either 0.1% or 0.5% dimethyl sulfoxide (DMSO). Gambogic acid was used as a positive control for cytotoxicity and titrated from 10 μM to 78 nM. All assays were performed in triplicate. Cells were treated with compounds for 24 hours at 37° C. in an incubator containing 5% CO2. Following treatment, alamar blue was used to determine if any compounds led to a loss in cell viability after 24 hours. The 10× alamar blue reagent was added to a final concentration of 1× as recommended by the manufacturer and cells were returned to the incubator for 4 hours. Plates were then allowed to equilibrate to room temperature and fluorescence was measured using a Perkin-Elmer EnVision. After completion of the fluorescence read, the liquid from each well was removed and the cells were washed with PBS. The Nano-Glo® HiBiT detection reagent was prepared according to the manufacturer's instructions and added to each well after the PBS wash was removed. Following incubation at room temperature for 45 minutes, the luminescence was read using the ultra-sensitive luminescence aperture on the Envision instrument.
Fluorescence values from the alamar blue treatment were normalized to the DMSO only control for each compound titration. We hypothesized that compounds that led to a ≥50% loss in cell viability of the KRAS-independent SW1573 HiBit-KRas^G12C cells were likely generally cytotoxic and loss of HiBit-KRAS^G12C signal from these compounds may be due to lower cell number and not specific KRAS^G12C degradation. These points were therefore excluded from the data analysis for degradation. […]

Assay [2] deals with T1, HiBit-KRAS^G12C. Kind of assay: HiBit degradation assay in SW1573 HiBit-KRas^G12C cells. In kind it is cell-based. On the set-up: expressed in transfected cells; host or cells: SW1573 (clone E6), modified pcDNA3.1 vector, TK promoter. The settings on record: 24 hours. An outline of the steps:
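HiBit-KRAS G12C degradation was measured after a 24 h compound exposure (titrated 10 μM–20 nM) in engineered SW1573 cells. Lytic HiBit luminescence, expressed relative to DMSO controls, yielded DC50 and Dmax from 4-parameter fits. Concentrations causing ≥50% loss in alamar blue viability were omitted as cytotoxic.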
Background: The HiBiT peptide binds its large partner to form an active luciferase.

The mark [3] stands for this setting: read-out: KRas^G12C-HiBiT (MiaPaCa; 0.5% DMSO) IC50, MiaPaCa-2 HiBit-KRas^G12C cells, 0.5% DMSO.
The mark [4] stands for this setting: read-out: KRas^G12C-HiBiT (SW1573; 0.5% DMSO) IC50***, SW1573 HiBit-KRas^G12C, 0.5% DMSO.
[5] abbreviates: MIA PaCa-2, MiaPaCa-2 HiBit-KRas^G12C cells, 0.5% DMSO, maximum degradation, read-out: KRas^G12C-HiBiT (MiaPaCa; 0.5% DMSO) DMax.
Setting [6] is: SW1573, SW1573 HiBit-KRas^G12C, 0.5% DMSO, read-out: KRas^G12C-HiBiT (SW1573; 0.5% DMSO) Dmax**.
Where [7] appears, read: MIA PaCa-2, MiaPaCa-2 HiBit-KRas^G12C cells, 0.1% DMSO, maximum degradation, read-out: KRas^G12C-HiBiT (MiaPaCa; 0.1% DMSO) DMax.
[8] abbreviates: SW1573, SW1573 HiBit-KRas^G12C, 0.1% DMSO, read-out: KRas^G12C-HiBit (SW1573; 0.1% DMSO) Dmax**.
[9] abbreviates: SW1573 HiBit-KRas^G12C, 0.1% DMSO, read-out: KRas^G12C-HIBit (SW1573; 0.1% DMSO) DC50*.

This note sets out measurements from patent publication US20220370416A1, “COMPOUNDS AND METHODS FOR TARGETED DEGRADATION OF KRAS” (Arvinas Operations, Inc., priority 2020, published 2022).

T1 sequence (P01116 1-186 isoform P01116-2 G12C limits assumed): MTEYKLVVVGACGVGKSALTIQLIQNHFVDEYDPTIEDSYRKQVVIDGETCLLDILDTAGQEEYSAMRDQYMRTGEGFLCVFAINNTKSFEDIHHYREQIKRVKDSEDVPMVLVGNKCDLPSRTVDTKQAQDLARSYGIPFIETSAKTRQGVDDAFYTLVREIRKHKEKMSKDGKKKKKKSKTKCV

As for `C=CC(=O)N1CCN(c2nc(OCCN3CCC(F)(CN(C)CC(=O)N[C@H](C(=O)N4C[C@H](O)C[C@H]4C(=O)N[C@@H](C)c4ccc(-c5scnc5C)cc4)C(C)(C)C)CC3)nc3c(F)c(-c4cc(O)cc5ccccc45)c(Cl)cc23)C[C@@H]1CC#N` [Compound 120, (2S,4R)-1-[(2S)-2-{2-[({1-[2-({6-chloro-4-[(3S)-3-(cyanomethyl)-4-(prop-2-enoyl)piperazin-1-yl]-8-fluoro-7-(3-hydroxynaphthalen-1-yl)quinazolin-2-yl}oxy)ethyl]-4-fluoropiperidin-4-yl}methyl)(methyl)amino]acetamido}-3,3-dimethylbutanoyl]-4-hydroxy-N-[(1S)-1-[4-(4-methyl-1,3-thiazol-5-yl)phenyl]ethyl]pyrrolidine-2-carboxamide], the Dmax on HiBit-KRAS^G12C [1] (MIA PaCa-2, read-out: KRas^G12C-HiBiT (MiaPaCa; 0.5% DMSO) DMax, MiaPaCa-2 HiBit-KRas^G12C cells, 0.5% DMSO, maximum degradation) was 35 to 70%; at HiBit-KRAS^G12C [2] (SW1573, read-out: KRas^G12C-HiBiT (SW1573; 0.5% DMSO) Dmax**, SW1573 HiBit-KRas^G12C, 0.5% DMSO), 35 to 70%. Also, the DC50 at HiBit-KRAS^G12C [1] (setting [3]) and at HiBit-KRAS^G12C [2] (setting [4]) was 0.1 to 1 µM in each case.
With `C=CC(=O)N1CCN(c2nc(OCCN3CCC(CN(C)c4cc([C@H](C(=O)N5C[C@H](O)C[C@H]5C(=O)N[C@@H](C)c5ccc(-c6scnc6C)cc5)C(C)C)on4)CC3)nc3c(F)c(-c4cc(O)cc5ccccc45)c(Cl)cc23)C[C@@H]1CC#N` [Compound 143, (2S,4R)-1-[(2R)-2-{3-[({1-[2-({6-chloro-4-[(3S)-3-(cyanomethyl)-4-(prop-2-enoyl)piperazin-1-yl]-8-fluoro-7-(3-hydroxynaphthalen-1-yl)quinazolin-2-yl}oxy)ethyl]piperidin-4-yl}methyl)(methyl)amino]-1,2-oxazol-5-yl}-3-methylbutanoyl]-4-hydroxy-N-[(1S)-1-[4-(4-methyl-1,3-thiazol-5-yl)phenyl]ethyl]pyrrolidine-2-carboxamide], the Dmax on HiBit-KRAS^G12C [1] (setting [5]) and at HiBit-KRAS^G12C [2] (setting [6]) was over 70% throughout. Moreover, the DC50 on HiBit-KRAS^G12C [1] (setting [3]) and on HiBit-KRAS^G12C [2] (setting [4]) was 0.1 to 1 µM throughout.
As to `C=CC(=O)N1CCN(c2nc(OCCN3CCC(COCC(=O)N[C@H](C(=O)N4C[C@H](O)C[C@H]4C(=O)N[C@@H](C)c4ccc(-c5scnc5C)cc4)C(C)(C)C)CC3)nc3c(F)c(-c4nc(N)cc5ccccc45)c(Cl)cc23)C[C@@H]1CC#N` [Compound 111], the Dmax on HiBit-KRAS^G12C [1] (setting [5]) and on HiBit-KRAS^G12C [2] (setting [6]) was 35 to 70% throughout. Further, the DC50 on HiBit-KRAS^G12C [1] (setting [3]) and on HiBit-KRAS^G12C [2] (setting [4]) was 0.1 to 1 µM in each case.
On to `C=CC(=O)N1CCN(c2nc(OCCN3CCC(OCCOc4cc([C@H](C(=O)N5C[C@H](O)C[C@H]5C(=O)N[C@@H](C)c5ccc(-c6scnc6C)cc5)C(C)C)on4)CC3)nc3c(F)c(-c4cc(O)cc5ccccc45)c(Cl)cc23)C[C@@H]1CC#N` (single isomer, unassigned) [Compound 21], for which the Dmax at HiBit-KRAS^G12C [1] (setting [7]), on HiBit-KRAS^G12C [1] (setting [5]), at HiBit-KRAS^G12C [2] (setting [8]) and at HiBit-KRAS^G12C [2] (setting [6]) was over 70% in each case. Besides, on HiBit-KRAS^G12C [2] (setting [9]), the DC50 fell in the range of 0.1 to 1 µM.
Turning to `C=CC(=O)N1CCN(c2nc(O[C@H](C)CN3CCC(OCCOCC(=O)N[C@H](C(=O)N4C[C@H](O)C[C@H]4C(=O)N[C@@H](C)c4ccc(-c5scnc5C)cc4)C(C)(C)C)CC3)nc3c(F)c(-c4c(O)cccc4F)c(Cl)cc23)CC1` [Compound 61, (2S,4R)-1-[(2S)-2-{2-[2-({1-[(2R)-2-{[6-chloro-8-fluoro-7-(2-fluoro-6-hydroxyphenyl)-4-[4-(prop-2-enoyl)piperazin-1-yl]quinazolin-2-yl]oxy}propyl]piperidin-4-yl}oxy)ethoxy]acetamido}-3,3-dimethylbutanoyl]-4-hydroxy-N-[(1S)-1-[4-(4-methyl-1,3-thiazol-5-yl)phenyl]ethyl]pyrrolidine-2-carboxamide], the DC50 is over 1 µM at HiBit-KRAS^G12C [1] (read-out: KRas^G12C-HiBiT (MiaPaCa; 0.1% DMSO) IC50, MiaPaCa-2 HiBit-KRas^G12C cells, 0.1% DMSO); over 1 µM on HiBit-KRAS^G12C [1] (setting [3]); 0.1 to 1 µM at HiBit-KRAS^G12C [2] (setting [9]); over 1 µM at HiBit-KRAS^G12C [2] (setting [4]). The Dmax at HiBit-KRAS^G12C [2] (setting [8]) was under 35%; on HiBit-KRAS^G12C [2] (setting [6]), 35 to 70%.
Take `C=CC(=O)N1CCN(c2nc(OCCN3CCC(COCC(=O)N[C@H](C(=O)N4C[C@H](O)C[C@H]4C(=O)N[C@@H](C)c4ccc(-c5scnc5C)cc4)C(C)(C)C)CC3)nc3c(F)c(-c4cc(O)cc5ccccc45)c(Cl)cc23)C[C@@H]1CC#N` (atropisomer, axis not shown) [Compound 163, (2S,4R)-1-[(2S)-2-[2-({1-[2-({6-chloro-4-[(3S)-3-(cyanomethyl)-4-(prop-2-enoyl)piperazin-1-yl]-8-fluoro-7-(3-hydroxynaphthalen-1-yl)quinazolin-2-yl}oxy)ethyl]piperidin-4-yl}methoxy)acetamido]-3,3-dimethylbutanoyl]-4-hydroxy-N-[(1S)-1-[4-(4-methyl-1,3-thiazol-5-yl)phenyl]ethyl]pyrrolidine-2-carboxamide]: the “KRas^G12C-HiBiT (MiaPaCa; 0.5% DMSO) DMax” value on HiBit-KRAS^G12C [1] (MiaPaCa-2 HiBit-KRas^G12C cells, 0.5% DMSO, maximum degradation) is “A (A ≥ 70)”. For the same molecule, the “KRas^G12C-HiBiT (SW1573; 0.5% DMSO) Dmax**” value on HiBit-KRAS^G12C [2] (SW1573 HiBit-KRas^G12C, 0.5% DMSO) is on record as “A (A ≥ 70)”.
For `C=CC(=O)N1CCN(c2nc(O[C@H](C)CN3CCC(OCCOCC(=O)N[C@H](C(=O)N4C[C@H](O)C[C@H]4C(=O)N[C@@H](C)c4ccc(-c5scnc5C)cc4)C(C)(C)C)CC3)nc3c(F)c(-c4cc(O)cc5ccccc45)c(Cl)cc23)[C@@H](C)C1` [Compound 39, (2S,4R)-1-[(2S)-2-{2-[2-({1-[(2R)-2-{[6-chloro-8-fluoro-7-(3-hydroxynaphthalen-1-yl)-4-[(2S)-2-methyl-4-(prop-2-enoyl)piperazin-1-yl]quinazolin-2-yl]oxy}propyl]piperidin-4-yl}oxy)ethoxy]acetamido}-3,3-dimethylbutanoyl]-4-hydroxy-N-[(1S)-1-[4-(4-methyl-1,3-thiazol-5-yl)phenyl]ethyl]pyrrolidine-2-carboxamide], the values for the Dmax on HiBit-KRAS^G12C [1] (setting [7]), on HiBit-KRAS^G12C [2] (setting [8]) and at HiBit-KRAS^G12C [2] (setting [6]) were under 35%, 35 to 70% and 35 to 70%, respectively. The values for the DC50 at HiBit-KRAS^G12C [1] (setting [3]) and on HiBit-KRAS^G12C [2] (setting [9]) were over 1 µM and 0.1 to 1 µM, respectively.
